Data on six compounds can be found in ChEMBL document CHEMBL4396971, “Discovery of potent and orally bioavailable indazole-based glucagon receptor antagonists for the treatment of type 2 diabetes” (Bioorg Med Chem Lett, 2019).

The source made the active and inactive calls. No cut-off for these calls is given here.

Data set [1] in a line: Clearance in Sprague-Dawley rat at 2 mg/kg, iv or 10 mg/kg, po. The format is ADME, organism-based. The settings on record: in vivo.
The test system of data set [2] is Canis familiaris. The data set can be described thus: Antidiabetic activity in Beagle dog assessed as reduction in blood glucose AUC at 10 mg/kg, po administered via gavage as single dose 90 mins prior to glucagon challenge by glucometer analysis. The settings on record: Canis lupus familiaris. The format is functional, organism-based.
Data set [3] in a line: AUClast in C57 mouse at 5 mg/kg, iv or 20 mg/kg, po. The format is ADME, organism-based. The settings on record: in vivo.
A short description of data set [4]: Antagonist activity at GCGR in dog hepatocytes assessed as inhibition of glucagon-induced cAMP by LANCE TR-FRET assay. The format is cell-based, Canis lupus familiaris.
A short description of data set [5]: Oral bioavailability in dog at 10 mg/kg. The format is ADME, organism-based, Canis lupus familiaris. The settings on record: in vivo.
Data set [6] in a line: Clearance in dog at 2 mg/kg, iv or 10 mg/kg, po. The settings on record: in vivo. The format is ADME, organism-based, Canis lupus familiaris.
Data set [7] in a line: Half life in dog at 10 mg/kg, po. The settings on record: in vivo. The format is ADME, organism-based, Canis lupus familiaris.
Data set [8] relates to Canis familiaris. The data set can be described thus: Antidiabetic activity in Beagle dog assessed as reduction in blood glucose level at 10 mg/kg, po administered via gavage as single dose 90 mins prior to glucagon challenge measured up to 60 mins post glucagon challenge by glucometer analysis. The format is functional, organism-based. The settings on record: Canis lupus familiaris.

Data set [9] in a line: Oral bioavailability in Sprague-Dawley rat at 10 mg/kg. The format is ADME, organism-based. The settings on record: in vivo.
A short description of data set [10]: Stability in rat liver microsomes assessed as parent compound remaining at 1 uM incubated for 10 mins. The format is ADME, Microsome. The settings on record: read-out: Stability.
For data set [11], the target named is T1, Cytochrome P450 1A2 (Homo sapiens, UniProt P05177).
T1 sequence (P05177 whole entry): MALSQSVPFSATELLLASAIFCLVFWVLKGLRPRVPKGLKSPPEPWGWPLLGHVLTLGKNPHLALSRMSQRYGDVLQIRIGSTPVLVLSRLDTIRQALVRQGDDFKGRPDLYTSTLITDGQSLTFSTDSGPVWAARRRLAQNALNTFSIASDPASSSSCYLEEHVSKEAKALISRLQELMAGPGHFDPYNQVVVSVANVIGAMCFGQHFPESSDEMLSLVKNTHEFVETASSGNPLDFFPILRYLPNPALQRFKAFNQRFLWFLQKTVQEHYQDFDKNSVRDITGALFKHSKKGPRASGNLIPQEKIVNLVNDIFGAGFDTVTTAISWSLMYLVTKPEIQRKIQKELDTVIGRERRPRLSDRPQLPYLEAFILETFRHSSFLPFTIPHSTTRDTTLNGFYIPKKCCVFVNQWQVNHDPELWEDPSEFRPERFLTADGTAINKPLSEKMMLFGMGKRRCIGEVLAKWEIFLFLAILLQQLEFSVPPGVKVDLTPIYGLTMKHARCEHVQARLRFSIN
The data set can be described thus: Inhibition of CYP1A2 (unknown origin) using phenacetin as substrate. The format is ADME.

The nature of data set [12]: AUClast in dog at 2 mg/kg, iv or 10 mg/kg, po. The settings on record: in vivo. The format is ADME, organism-based, Canis lupus familiaris.
Data set [13] addresses T2, Cytochrome P450 3A4 (Homo sapiens, UniProt P08684). Kind of data set: Inhibition of CYP3A4 (unknown origin) using testosterone as substrate. The format is ADME.
Data set [14] in a line: Cmax in Sprague-Dawley rat at 2 mg/kg, iv or 10 mg/kg, po. The format is ADME, organism-based. The settings on record: in vivo.
A short description of data set [15]: Stability in dog liver microsomes assessed as parent compound remaining at 1 uM incubated for 10 mins. The format is ADME, Canis lupus familiaris, Microsome. The settings on record: for remaining at 10 min, 1 µM: liver microsomes, read-out: Stability.
Data set [16] is described as follows: Half life in C57 mouse at 5 mg/kg, iv. The format is ADME, organism-based. The settings on record: in vivo.
The nature of data set [17]: Half life in C57 mouse at 20 mg/kg, po. The settings on record: in vivo. The format is ADME, organism-based.
Data set [18] can be described thus: Volume of distribution at steady state in C57 mouse at 5 mg/kg, iv or 20 mg/kg, po. The settings on record: in vivo, read-out: Vdss. The format is ADME, organism-based.
The nature of data set [19]: Clearance in C57 mouse at 5 mg/kg, iv or 20 mg/kg, po. The format is ADME, organism-based. The settings on record: in vivo.
Data set [20] is described as follows: Half life in Sprague-Dawley rat at 2 mg/kg, iv. The format is ADME, organism-based. The settings on record: in vivo.
A short description of data set [21]: Stability in human liver microsomes assessed as parent compound remaining at 1 uM incubated for 10 mins. The format is ADME, Microsome. The settings on record: read-out: Stability.
A short description of data set [22]: Cmax in dog at 2 mg/kg, iv or 10 mg/kg, po. The format is ADME, organism-based, Canis lupus familiaris. The settings on record: in vivo.
Data set [23] in a line: Half life in Sprague-Dawley rat at 10 mg/kg, po. The format is ADME, organism-based. The settings on record: in vivo.
Data set [24] can be described thus: Cmax in C57 mouse at 5 mg/kg, iv or 20 mg/kg, po. The format is ADME, organism-based. The settings on record: in vivo.
The target in data set [25] is T2, Cytochrome P450 3A4. The data set can be described thus: Inhibition of CYP3A4 (unknown origin) using midazolam as substrate. The format is ADME.
For data set [26], the target named is Cytochrome P450 2D6 (Homo sapiens, UniProt P10635). Kind of data set: Inhibition of CYP2D6 (unknown origin) using dextromethorphan as substrate. The format is ADME.
Cytochrome P450 2D6, sequence (P10635 whole entry): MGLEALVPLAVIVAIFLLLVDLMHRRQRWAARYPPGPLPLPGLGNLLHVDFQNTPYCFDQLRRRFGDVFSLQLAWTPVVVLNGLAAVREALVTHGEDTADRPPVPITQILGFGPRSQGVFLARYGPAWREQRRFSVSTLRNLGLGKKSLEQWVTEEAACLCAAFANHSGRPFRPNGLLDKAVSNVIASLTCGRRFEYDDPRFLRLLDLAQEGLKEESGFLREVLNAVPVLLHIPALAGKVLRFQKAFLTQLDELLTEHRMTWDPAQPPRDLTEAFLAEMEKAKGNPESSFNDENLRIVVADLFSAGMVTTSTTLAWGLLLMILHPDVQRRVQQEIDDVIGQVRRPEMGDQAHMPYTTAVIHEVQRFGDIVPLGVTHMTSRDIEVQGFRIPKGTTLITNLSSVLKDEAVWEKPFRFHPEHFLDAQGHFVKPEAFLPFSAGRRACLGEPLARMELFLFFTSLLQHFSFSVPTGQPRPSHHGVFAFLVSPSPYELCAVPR
The target of data set [27] is Cytochrome P450 2C19 (Homo sapiens, UniProt P33261). The data set can be described thus: Inhibition of CYP2C19 (unknown origin) using S-Mephenytoin as substrate. The format is ADME.
Cytochrome P450 2C19, sequence (P33261 whole entry): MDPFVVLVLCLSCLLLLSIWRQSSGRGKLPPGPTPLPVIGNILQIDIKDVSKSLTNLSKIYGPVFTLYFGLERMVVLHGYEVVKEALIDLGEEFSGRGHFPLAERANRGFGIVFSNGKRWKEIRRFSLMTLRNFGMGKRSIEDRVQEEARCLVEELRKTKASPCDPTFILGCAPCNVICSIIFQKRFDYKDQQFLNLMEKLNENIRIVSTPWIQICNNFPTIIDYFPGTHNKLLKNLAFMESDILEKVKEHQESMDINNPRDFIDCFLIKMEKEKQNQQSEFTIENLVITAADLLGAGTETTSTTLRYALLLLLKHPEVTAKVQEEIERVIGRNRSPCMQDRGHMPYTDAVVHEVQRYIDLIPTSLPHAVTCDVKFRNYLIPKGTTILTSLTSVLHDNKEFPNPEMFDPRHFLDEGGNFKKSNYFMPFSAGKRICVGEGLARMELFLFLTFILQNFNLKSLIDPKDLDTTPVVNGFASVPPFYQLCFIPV
The nature of data set [28]: AUClast in Sprague-Dawley rat at 2 mg/kg, iv or 10 mg/kg, po. The format is ADME, organism-based. The settings on record: in vivo.
Data set [29] can be described thus: Volume of distribution at steady state in Sprague-Dawley rat at 2 mg/kg, iv or 10 mg/kg, po. The format is ADME, organism-based. The settings on record: in vivo, read-out: Vdss.
The nature of data set [30]: Protein binding in human plasma at 1 uM. The format is ADME, cell-free. The settings on record: read-out: PPB.
A short description of data set [31]: Half life in dog at 2 mg/kg, iv. The format is ADME, organism-based, Canis lupus familiaris. The settings on record: in vivo.
Data set [32] is described as follows: Oral bioavailability in C57 mouse at 20 mg/kg. The format is ADME, organism-based. The settings on record: in vivo.
A short description of data set [33]: Stability in mouse liver microsomes assessed as parent compound remaining at 1 uM incubated for 10 mins. The format is ADME, Microsome. The settings on record: liver microsomes, read-out: Stability.
The target in data set [34] is Cytochrome P450 2C9 (Homo sapiens, UniProt P11712). The data set can be described thus: Inhibition of CYP2C9 (unknown origin) using tolbutamide as substrate. The format is ADME.
Cytochrome P450 2C9, sequence (P11712 whole entry): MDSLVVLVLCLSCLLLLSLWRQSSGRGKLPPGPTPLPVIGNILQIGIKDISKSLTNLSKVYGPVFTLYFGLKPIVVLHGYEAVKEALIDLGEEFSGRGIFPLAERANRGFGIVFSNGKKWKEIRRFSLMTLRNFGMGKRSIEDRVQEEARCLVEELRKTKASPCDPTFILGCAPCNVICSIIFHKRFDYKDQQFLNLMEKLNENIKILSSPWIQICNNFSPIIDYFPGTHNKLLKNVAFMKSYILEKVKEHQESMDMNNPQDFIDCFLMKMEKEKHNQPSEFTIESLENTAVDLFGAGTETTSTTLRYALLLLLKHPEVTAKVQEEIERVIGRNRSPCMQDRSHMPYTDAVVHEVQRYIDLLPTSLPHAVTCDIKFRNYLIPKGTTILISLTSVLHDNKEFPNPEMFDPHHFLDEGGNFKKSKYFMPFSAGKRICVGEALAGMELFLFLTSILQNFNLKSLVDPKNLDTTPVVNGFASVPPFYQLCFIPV
Data set [35] is described as follows: Volume of distribution at steady state in dog at 2 mg/kg, iv or 10 mg/kg, po. The settings on record: in vivo, read-out: Vdss. The format is ADME, organism-based, Canis lupus familiaris.
For data set [36], the target named is T3, Glucagon receptor (Homo sapiens, UniProt P47871). Kind of data set: Inhibition of human full length GCGR transfected in HEK293 cells assessed as reduction in glucagon-induced cAMP response by LANCE TR-FRET assay. The format is functional, cell-based.
T3 sequence (P47871 whole entry): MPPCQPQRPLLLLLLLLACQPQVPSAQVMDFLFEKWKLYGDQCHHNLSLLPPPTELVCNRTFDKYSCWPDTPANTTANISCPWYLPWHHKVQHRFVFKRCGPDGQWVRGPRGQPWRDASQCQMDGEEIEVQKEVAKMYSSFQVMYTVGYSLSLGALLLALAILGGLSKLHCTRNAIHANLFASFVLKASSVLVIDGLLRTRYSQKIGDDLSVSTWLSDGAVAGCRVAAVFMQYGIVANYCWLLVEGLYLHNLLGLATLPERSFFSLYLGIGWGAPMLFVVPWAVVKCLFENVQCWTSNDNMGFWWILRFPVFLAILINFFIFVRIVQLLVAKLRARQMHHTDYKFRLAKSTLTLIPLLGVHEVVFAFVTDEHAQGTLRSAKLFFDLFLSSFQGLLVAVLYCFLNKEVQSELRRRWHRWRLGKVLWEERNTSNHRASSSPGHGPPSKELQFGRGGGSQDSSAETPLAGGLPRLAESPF
The target in data set [37] is T3, Glucagon receptor. Kind of data set: Potency index, ratio of Ki of 3-[[4-[(1R)-1-[5-[2-Chloro4-(trifluoromethyl)phenyl]indazol-1-yl]-3-methyl-butyl]benzoyl]amino]propanoic acid to Ki of compound for human full length GCGR transfected in HEK293 cells assessed as reduction in glucagon-induced cAMP response by LANCE TR-FRET assay. The format is functional, cell-based.

T2 sequence (P08684 whole entry): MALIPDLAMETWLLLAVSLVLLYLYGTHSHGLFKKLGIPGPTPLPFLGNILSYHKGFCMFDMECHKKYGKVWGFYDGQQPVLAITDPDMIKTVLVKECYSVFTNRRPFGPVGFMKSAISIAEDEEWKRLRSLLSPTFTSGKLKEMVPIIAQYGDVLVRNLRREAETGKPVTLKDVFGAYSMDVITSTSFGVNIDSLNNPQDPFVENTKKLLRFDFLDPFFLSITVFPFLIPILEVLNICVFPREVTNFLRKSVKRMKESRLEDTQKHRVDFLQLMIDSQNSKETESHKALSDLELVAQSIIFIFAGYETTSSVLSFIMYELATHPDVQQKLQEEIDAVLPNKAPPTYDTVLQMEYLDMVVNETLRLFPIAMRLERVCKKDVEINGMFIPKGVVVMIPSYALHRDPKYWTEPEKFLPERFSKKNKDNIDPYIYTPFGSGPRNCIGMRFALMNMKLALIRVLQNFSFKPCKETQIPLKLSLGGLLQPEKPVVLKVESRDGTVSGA

As to `Cc1cc(C(F)(F)F)ccc1-c1cc2cnn([C@@H](CC(C)C)c3ccc(C(=O)NCCC(=O)O)cc3)c2cc1C`, the clearance in data set [1] was found to be 26.8 mL/min/kg; in data set [6], 0.21 mL/min/kg; in data set [19], 1.61 mL/min/kg. Moreover, the inhibition result in [2] and in [8] was “Active” each time. Moreover, the results for the AUC(0-t) in [3], in [12] and in data set [28] were 242 µM·h, 422 µM·h and 6.5 µM·h, respectively. In data set [4], the Ki was determined as 0.03 µM. Further, the bioavailability was 39.5% in [5], 51.9% in [9] and 70.1% in [32]. The half-life is 16.9 h in [7]; 7.2 h in data set [16]; 6.5 h in data set [17]; 1.6 h in [20]; 3.1 h in data set [23]; 13.3 h in [31]. For the same compound, the remaining at 10 min, 1 µM in [10] stood at 116%; in [15] it was 80%; in data set [21] it was 81%; in data set [33], 70%. The IC50 in data set [11], in [13], in data set [25], in data set [26], in data set [27] and in data set [34] was greater than 10 µM each time. Further, the Cmax in data set [14] stood at 0.8 µM; in data set [22], 27.7 µM; in data set [24] it was 18.9 µM. In addition, the Vd stood at 0.87 L/kg in data set [18], 2.67 L/kg in data set [29] and 0.22 L/kg in data set [35]. Also, the fraction unbound at 1 µM in [30] stood at 0.0001.
Take `CC(C)CC(c1ccc(C(=O)NCCC(=O)O)cc1)n1ncc2cc(-c3ccc(C(F)(F)F)cc3)ccc21` (racemic): in data set [36], the Ki came to 0.125 µM.
As for `Cc1cc(C(F)(F)F)ccc1-c1ccc2nn([C@@H](CC(C)C)c3ccc(C(=O)NCCC(=O)O)cc3)cc2c1C`, the remaining at 10 min, 1 µM in [10] worked out at 107%; in data set [15] it was 64%; in [21] it was 110%; in [33] it was 50%.
For the compound `Cc1cc(C(F)(F)F)ccc1-c1cc2cn([C@@H](CC(C)C)c3ccc(C(=O)NCCC(=O)O)cc3)nc2cc1C`, the clearance was determined as 12.7 mL/min/kg in data set [1], 0.19 mL/min/kg in data set [6] and 4.78 mL/min/kg in data set [19]. Besides, the figures for the AUC(0-t) in data set [3], in [12] and in [28] were 90.1 µM·h, 468 µM·h and 9.2 µM·h, respectively. Also, the Ki in data set [4] worked out at 0.65 µM. Further, the bioavailability in data set [5] was found to be 45%; in data set [9], 32.3%; in [32], 74.4%. Also, the half-life in data set [7] was 20.2 h; in data set [16], 4.5 h; in data set [17], 5 h; in data set [20], 3.7 h; in data set [23] it was 4.3 h; in data set [31], 21.7 h. Moreover, the remaining at 10 min, 1 µM is 113% in data set [10], 68% in data set [15], 57% in data set [21] and 79% in data set [33]. For the same compound, the IC50 in data set [11], in data set [13], in [25], in data set [26], in [27] and in data set [34] was greater than 10 µM throughout. Also, the Cmax in [14] was 1.1 µM; in [22], 35 µM; in [24], 7.9 µM. Besides, the Vd is 1.56 L/kg in [18], 2.94 L/kg in data set [29] and 0.26 L/kg in data set [35]. The fraction unbound at 1 µM in [30] stood at 0.0001.
Take `COc1c(-c2ccc(C(F)(F)F)cc2Cl)ccc2nn([C@H](CC(C)C)c3ccc(C(=O)NCCC(=O)O)cc3)cc12`: the remaining at 10 min, 1 µM in data set [10] stood at 100%; in data set [15], 79%; in data set [21], 116%; in [33], 76%.
Turning to `CC(C)C[C@@H](c1ccc(C(=O)NCCC(=O)O)cc1)n1ncc2cc(-c3ccc(C(F)(F)F)cc3Cl)ccc21`, the remaining at 10 min, 1 µM was 81% in data set [10], 59% in [21] and 107% in data set [33]. Further, the Ratio Ki in [37] came out at 15. In data set [15] (microsomes, 10 min, 1 µM), the Stability is reported as 121%.
